Assay [1] addresses T1, Solute carrier family 2, facilitated glucose transporter member 1 (Homo sapiens, UniProt P11166).
T1 sequence (P11166 whole entry): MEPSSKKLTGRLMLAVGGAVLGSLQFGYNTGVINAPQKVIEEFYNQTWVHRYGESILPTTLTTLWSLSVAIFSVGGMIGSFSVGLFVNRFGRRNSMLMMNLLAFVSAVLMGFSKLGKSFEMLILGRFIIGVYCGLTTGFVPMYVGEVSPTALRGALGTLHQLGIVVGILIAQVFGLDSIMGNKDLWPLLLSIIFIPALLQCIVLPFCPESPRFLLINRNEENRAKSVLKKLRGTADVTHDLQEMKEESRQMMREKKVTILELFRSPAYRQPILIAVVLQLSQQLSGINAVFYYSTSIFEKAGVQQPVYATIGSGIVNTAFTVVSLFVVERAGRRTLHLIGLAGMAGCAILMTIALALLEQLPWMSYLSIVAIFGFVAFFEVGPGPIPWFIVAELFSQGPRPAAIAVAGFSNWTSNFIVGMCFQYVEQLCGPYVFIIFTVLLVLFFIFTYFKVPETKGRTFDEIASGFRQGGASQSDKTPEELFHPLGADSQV
Kind of assay: Inhibition of GLUT1 in human wild-type DLD-1 cells assessed as reduction in ATP level measured after 90 mins by Celltiter-glo luminescent assay. The format is cell-based. (ATP-based viability assays read luminescence as a measure of living cells.)

In a further assay the test system is A549. Kind of assay: Inhibition of glycolysis in human A549 cells assessed as decrease in HK2 activity incubated for 48 hrs by spectrophotometric assay. Format: functional, cell-based. The conditions noted are these: A549, 48 h.
For assay [2], the target named is T2, Solute carrier family 2, facilitated glucose transporter member 9 (Homo sapiens, UniProt Q9NRM0).
T2 sequence (Q9NRM0 whole entry): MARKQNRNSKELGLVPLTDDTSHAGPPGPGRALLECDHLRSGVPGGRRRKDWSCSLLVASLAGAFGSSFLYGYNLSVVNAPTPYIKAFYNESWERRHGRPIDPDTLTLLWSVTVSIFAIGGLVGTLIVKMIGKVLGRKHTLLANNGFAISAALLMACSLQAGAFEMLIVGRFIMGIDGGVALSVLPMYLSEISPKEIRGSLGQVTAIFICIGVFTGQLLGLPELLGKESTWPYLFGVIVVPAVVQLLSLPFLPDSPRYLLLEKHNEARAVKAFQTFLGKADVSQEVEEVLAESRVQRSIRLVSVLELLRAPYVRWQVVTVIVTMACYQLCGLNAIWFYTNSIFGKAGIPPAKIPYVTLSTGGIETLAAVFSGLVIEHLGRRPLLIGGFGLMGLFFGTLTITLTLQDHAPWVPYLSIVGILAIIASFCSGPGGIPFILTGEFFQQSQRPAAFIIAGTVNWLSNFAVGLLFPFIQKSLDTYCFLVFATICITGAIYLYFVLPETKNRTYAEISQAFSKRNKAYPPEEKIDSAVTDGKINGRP
In words: Inhibition of GLUT9 (unknown origin) overexpressed in uric acid-induced HEK293 cells by patch clamp analysis. The format is cell-based. (The patch-clamp technique gives a direct electrical read-out from membranes.)

Another assay deals with 3T3-L1. Kind of assay: Induction of glucose uptake in mouse 3T3-L1 cells assessed as increase in glucose uptake. The format is functional, cell-based.
Assay [3] in a line: Induction of GLUT4 translocation in mouse 3T3-L1 cells Cytosol by Western blot analysis. Format: subcellular. For orientation: A western blot detects proteins with antibodies after separation by electrophoresis.
The nature of assay [4]: Induction of GLUT1 translocation in mouse 3T3-L1 cells by Western blot analysis. Format: cell-based.

Molecules are shown by their SMILES. A value given as a limit tells only on which side of the number the result lay.

Experimental findings from ChEMBL document CHEMBL6096679, “Recent Progress in the Development of Glucose Transporter (GLUT) Inhibitors” (J Med Chem, 2025) are described below.

As to `Cc1nn(C(=O)c2ccncc2)c(C)c1/N=N/c1ccc(Cl)cc1`, in assay [1], the IC50 (as a rule, the concentration that gives 50% inhibition) stood at 11.1 µM.
With `CCCCC1C(=O)NC2Cc3cccc4ccc(cc34)N1C(=O)COc1cccc(c1)[C@@H](CCc1ccc(OC)c(OC)c1)OC(=O)C1CCCCN1C(=O)C(=O)C(C)(C)COC(=O)/C=C\CCN(C)C(=O)CNC(=O)C(COC(C)(C)C)N(C)C2=O` (stereo partly drawn), the half-maximal inhibitory concentration (IC50) in the assay with A549 is less than 0.1 µM.
Take `O=C(Oc1ccc2ccc(=O)oc2c1OC(=O)c1ccc(O)cc1)c1ccc(O)cc1`: the half-maximal inhibitory concentration (IC50) in assay [1] was 38 µM.
In assay [2], `COc1cc(/C=C/C(=O)CC(=O)/C=C/c2ccc(O)c(OC)c2)ccc1O` [CURCUMIN] gave a half-inhibitory concentration (IC50) of 19 µM.
Take `CC(=O)CC(=O)Nc1ccc(Cl)c(C(F)(F)F)c1`: the IC50 in the assay with 3T3-L1 is 68 µM.
In the case of `CS(=O)(=O)c1ccc(Nc2ccc3c(c2)OCO3)c([N+](=O)[O-])c1`, half-maximal inhibition in assay [3] (IC50) was put at 5.8 µM.
Consider `COc1ccc(CC(=O)N[C@@H](Cc2cccc(Br)c2)C(=O)N[C@@H](C)c2ccccc2)cc1`, for which half-maximal inhibition in assay [4] (IC50) required 0.14 nM.
In the case of `O=C(Oc1cccc(OC(=O)c2cc(O)c(O)c(O)c2)c1OC(=O)c1cc(O)c(O)c(O)c1)c1cc(O)c(O)c(O)c1`, in the assay on 3T3-L1, the half-maximal inhibitory concentration (IC50) was determined as 5 µM.
`CCOc1cccc2c1O[C@]1(C)C[C@@H]2NC(=O)N1c1cccc(C(=O)NCCc2ccc(C)cc2)c1`: the results for the concentration for half-maximal inhibition (IC50) in assay [1] and in assay [2] were 0.162 µM and 0.32 µM, respectively.
In assay [2], `C=C1[C@@H](C)[C@H]2[C@H](Cc3ccccc3)NC(=O)[C@]23OC(=O)/C=C/[C@H](O)CCC[C@@H](C)C/C=C/[C@H]3[C@@H]1O` [CYTOCHALASIN B] registered a half-inhibitory concentration (IC50) of 0.44 µM.
As to `OC[C@H]1O[C@](O)(CO)[C@@H](O)[C@@H]1O`, the IC50 in the assay with 3T3-L1 amounted to 3.9 µM.
In the case of `Cc1ccc(CNc2ccc(Cl)cc2NCc2ccc(C)c(O)c2)cc1O`, the IC50 in assay [4] was 2600 nM.
Regarding `Cc1cccc(NC(=O)CN2C(=O)N/C(=C/c3cc(C)n(-c4ccc(O)cc4)c3C)C2=O)c1`, in assay [1], the half-maximal inhibitory concentration (IC50) stood at 10.6 µM.
Regarding `CCC(C)[C@H]1C(=O)NCC(=O)N(C)CC/C=C/C(=O)OCC(C)(C)C(=O)C(=O)N2CCCC[C@H]2C(=O)O[C@H](CCc2ccc(OC)c(OC)c2)c2cccc(c2)NC(=O)CCC(=O)N(C)[C@@H](CC(C)C)C(=O)N[C@H](Cc2ccccc2)C(=O)N1C` (stereo partly drawn), the half-inhibitory concentration (IC50) in assay [4] worked out at 78 nM.
For the compound `N[C@H]1C(O)O[C@H](CO)[C@@H](O)[C@@H]1O` (stereo partly drawn) [GLUCOSAMINE], in the assay on 3T3-L1, the IC50 was 0.9 µM.
As to `COc1ccccc1N1CCN(c2ncnc3c2cnn3-c2cc(F)cc(F)c2)CC1`, in assay [4], 0.09 nM corresponded to half-maximal inhibition (IC50).
In the case of `O=C(Nc1ccc(Cl)c(C(F)(F)F)c1)c1ccc(Cl)cc1`, in the assay on 3T3-L1, the 50% inhibitory concentration (IC50) came to 61 µM.
Turning to `CN(Cc1cccc2ncccc12)C(=O)c1cnn(-c2ncc3c(n2)-c2ccccc2CC3)c1C1CC1`, in assay [1], the 50% inhibitory concentration (IC50) was found to be 7.07 µM.
On to `COc1ccccc1N1CCN(C(=O)c2cnn(-c3nccc(-c4cccs4)n3)c2C2CC2)CC1`, for which, in assay [1], the IC50 came out at 2.87 µM.
Still for that read-out and setting: the result for `CC(C)(C)c1ccc(S(=O)(=O)NCc2ccc(C(=O)Nc3cccnc3)cc2)cc1` reads 1 µM.
`O=C(CN1C(=O)S/C(=C/c2ccco2)C1=O)Nc1nc2ccccc2s1` displayed an IC50 in assay [4] of 11400 nM.
For `COc1ccc(C2=CC(c3ccc(F)cc3)N(C(=O)CSc3c(C)[nH]c4ccccc34)N2)cc1` (stereo not drawn), in assay [1], the IC50 was determined as 0.61 µM.
Regarding `O=C(CN1C(=O)S/C(=C/c2ccco2)C1=O)Nc1ccc(Cl)c(Cl)c1`, the IC50 in assay [4] was determined as 14700 nM.
In assay [2], `O=c1cc(-c2ccc(O)cc2)oc2cc(O)cc(O)c12` [APIGENIN] had an IC50 of 2.63 µM.
In the case of `O=C(Oc1cccc(OC(=O)c2cccc(O)c2)c1OC(=O)c1cccc(O)c1)c1cccc(O)c1`, the IC50 in the assay on 3T3-L1 worked out at 0.3 µM.
Compound `CC(=O)Nc1ccc(S(=O)(=O)Nc2ccc(Nc3cc(N(C)C)nc(C)n3)cc2)cc1` had a concentration for half-maximal inhibition (IC50) in assay [3] of 7.01 µM.
Same read-out and setting: under `Cc1ccccc1CN(Cc1nnc(C(C)(C)C)o1)c1ccc2nc(O)[nH]c2c1` stands 6.94 µM.
`CCOC(=O)Cn1c2c(c3ccccc31)C[C@@H]1C[C@@H]2[C@H](OC)CN1C(=O)c1cccnc1SC`: the IC50 was determined as 0.0596 µM in assay [1] and 11.4 µM in assay [2].
With `C/C(=N\O)c1ccc(-c2ccc(O)c(Cl)c2)c(Cl)c1O`, the IC50 in assay [1] worked out at 0.29 µM.
`O=C(CN1C(=O)S/C(=C/c2ccc(Cl)cc2)C1=O)Nc1ccc(Cl)cc1C(F)(F)F` returned an IC50 in assay [4] of 5400 nM.
On to `OC[C@H]1OC(O)[C@H](O)[C@@H](O)[C@@H]1O` (stereo partly drawn) [DEXTROSE], for which the IC50 with 3T3-L1 came out at 1.4 µM.
`O=C(CCc1ccc(O)cc1)c1c(O)cc(O)cc1O` [PHLORETIN]: the IC50 in assay [2] turned out to be 49 µM.
As to `COc1ccc(CN(CC[C@@H](c2ccccc2)[C@H]2CCOC(C)(C)C2)C(=O)c2ccco2)cc1OC`, the concentration for half-maximal inhibition (IC50) in the assay with 3T3-L1 amounted to 0.11 µM.
As for `COCc1c(C(=O)N2CCN(c3ccccc3)CC2)cnn1-c1ncc2c(n1)-c1ccccc1CCC2`, the IC50 in assay [1] was found to be 6.08 µM.
On to `O=C(COc1cccc(-c2nc(Nc3ccc(-c4cn[nH]c4)cc3)c3sccc3n2)c1)NC1CCCC1`, for which the 50% inhibitory concentration (IC50) with A549 is less than 0.1 µM.
With `COc1ccc(-c2ccc(O)c(/C=N/O)c2)cc1F`, in assay [1], the half-maximal inhibitory concentration (IC50) was 10.8 µM.
Turning to `FC(F)(F)c1cc(NC(=S)NCc2ccccc2)ccc1Cl`, in the assay with 3T3-L1, the half-inhibitory concentration (IC50) came out at 61 µM.
Regarding `O=C(COc1ccc(-c2csc3ccccc23)cc1CN1CCN(c2ccccn2)CC1)NCc1nccs1`, the IC50 in assay [1] stood at 6.32 µM.
`O=C(COc1cccc(-c2nc3c(c(Nc4ccc(-c5cn[nH]c5)cc4)n2)COC3)c1)NC1CCC1`: in the assay with A549, the half-inhibitory concentration (IC50) is less than 0.1 µM.
For the compound `CC(C)NC(=O)COc1cccc(-c2nc3c(c(Nc4ccc(-c5cn[nH]c5)cc4)n2)COC3)c1`, in the assay on A549, the IC50 is less than 0.1 µM.
For `O=C(CN1C(=O)S/C(=C/c2ccccc2)C1=O)Nc1nc2c(Cl)cccc2s1`, inhibition in assay [4] was half-maximal at 12600 nM (IC50).
For `C/C(=N\O)c1ccc(-c2ccc(O)c(C)c2)c(Cl)c1O`, the IC50 in assay [1] stood at 7 µM.
Turning to `O=C(COc1cccc(-c2nc3c(c(Nc4ccc(-c5cn[nH]c5)cc4)n2)COC3)c1)NC1CCCC1`, the IC50 in the assay on A549 was less than 0.1 µM.
On to `COc1ccc(-n2cc(-c3ccc(Cl)cc3)nc2NC(=O)CN(Cc2ccccc2)C(=O)c2ccc(C)cc2)cc1OC`, for which, in assay [1], the concentration for half-maximal inhibition (IC50) was 1.89 µM.
Regarding `O=C1CC(c2cccc3[nH]ccc23)c2ccc(NC(=O)c3cccnc3)cc2N1` (stereo not drawn), in the assay on 3T3-L1, the IC50 amounted to 28 µM.
As for `CCOc1ccc2nc(-c3cccc(OCC(=O)NC(C)C)c3)nc(Nc3ccc(-c4cn[nH]c4)cc3)c2c1`, the IC50 in assay [4] was determined as 115 nM.
`COc1ccc(-c2ccc(/C(C)=N/O)c(O)c2Cl)cc1`: in assay [1], the IC50 stood at 1.67 µM.
Turning to `Cc1cc(NC(=O)CCC2Cc3ccccc3NC2=O)nc(-c2ccccc2)n1` (stereo not drawn), the IC50 in assay [3] worked out at 3.88 µM.
In the case of `C[C@@]1(C(=O)NCc2cccnc2)Cn2nc(-c3ccccc3)cc2C(=O)N1Cc1ccc(N2CCOCC2)cc1`, half-maximal inhibition in assay [4] (IC50) required 6.2 nM.
`O=C(CN1C(=O)S/C(=C/c2ccc(F)cc2)C1=O)Nc1cccc(C(F)(F)F)c1`: half-maximal inhibition in assay [4] (IC50) was put at 26600 nM.
Consider `C[C@H](NC(=O)[C@H](Cc1ccc(F)cc1)NC(=O)Cc1cccc(O)c1)c1ccccc1`, for which, in assay [4], the IC50 was determined as 0.2 nM.
Regarding `O=C1CC(c2ccc(-c3cc[nH]n3)s2)c2cc(N3CCNC3=O)ccc2N1` (stereo not drawn), in the assay with 3T3-L1, the IC50 was found to be 33 µM.
For `CC(CN1C(=O)S/C(=C\c2ccc(O)c(C(F)(F)F)c2)C1=O)(CC(F)(F)F)CC(F)(F)F`, the IC50 in assay [1] came to 11.4 µM.
As for `CC(C)NC(=O)COc1cccc(-c2nc(Nc3ccc(-c4cn[nH]c4)cc3)c3sccc3n2)c1`, in the assay with A549, the IC50 is less than 0.1 µM.
For the compound `O=C(Oc1cccc(F)c1OC(=O)c1cccc(O)c1)c1cccc(O)c1`, the half-inhibitory concentration (IC50) in the assay on 3T3-L1 is 0.5 µM.
On the same count and under the same terms, the result for `CC/C=C\C/C=C\C/C=C\C/C=C\C/C=C\C/C=C\CCC(=O)O` [DOCONEXENT] reads 0.8 µM.
